Data as given in patent US12084419B2, “Cell metabolism modulating compounds and uses thereof” (CRESCENTA BIOSCIENCES, priority 2020, dated 2024).

Molecular target: T1, His6 tagged human recombinant FABP4 (Homo sapiens, UniProt P15090)
T1 construct: purchased Cayman Chemicals 10009549
Experiment: FABP4 TR-FRET assay: displacement of BODIPY FL C12 fatty acid
Conditions: triplicates, inhibition of BODIPY FL C12 binding; for inhibition at 1 µM: 1 μM compound; for inhibition at 10 µM: 10 μM compound
Procedure, shortened: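 TR-FRET with a Tb anti-His6 antibody donor and BODIPY FL C12 as acceptor; compounds came from 0.362 and 0.0362 mM DMSO stocks. Protein (83 nM) and antibody (49.6 nM) solutions were premixed 30 min on ice in 25 mM Tris pH 7.4 with γ-globulins, NP-40 and DTT. Incubation was 10 min at room temperature; inhibition came from the 520/615 nm ratio.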

T1 sequence (P15090 whole entry): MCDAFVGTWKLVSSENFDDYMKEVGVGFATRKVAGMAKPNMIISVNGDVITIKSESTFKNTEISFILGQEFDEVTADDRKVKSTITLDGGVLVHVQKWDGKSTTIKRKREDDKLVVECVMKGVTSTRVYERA

Row | SMILES | inhibition at 1 µM [%] | inhibition at 10 µM [%]
1 | CCCCC1CCCc2c(n(Cc3cccc(C(N)=O)c3)c3c(C(=O)NCCO)cccc23)C1 (stereo not shown) [7-butyl-5-[(3-carbamoylphenyl)methyl]-N-(2-hydroxyethyl)-5H,6H,7H,8H,9H,10H-cyclohepta[b]indole-4-carboxamide] | 10.2 | 
2 | CCCCC1CCCc2c(n(Cc3cccc(C(=O)O)c3)c3c(C(=O)O)cccc23)C1 (stereo not shown) [7-butyl-5-[(3-carboxyphenyl)methyl]-5H,6H,7H,8H,9H,10H-cyclohepta[b]indole-4-carboxylic acid] | 91.8 | 100
3 | CCCCC1CCCc2c(n(Cc3cccc(Cl)c3)c3c(C(=O)O)cccc23)C1 (stereo not shown) [7-butyl-5-[(3-chlorophenyl)methyl]-5H,6H,7H,8H,9H,10H-cyclohepta[b]indole-4-carboxylic acid] | 84.2 | 83
4 | CCCCC1CCCc2c(n(Cc3cccc(C#N)c3)c3c(C(=O)O)cccc23)C1 (stereo not shown) [7-butyl-5-[(3-cyanophenyl)methyl]-5H,6H,7H,8H,9H,10H-cyclohepta[b]indole-4-carboxylic acid] | 73.5 | 112
5 | CCCCC1CCCc2c(n(Cc3cccc(C#N)c3)c3c(C(=O)NCCO)cccc23)C1 (stereo not shown) [7-butyl-5-[(3-cyanophenyl)methyl]-N-(2-hydroxyethyl)-5H,6H,7H,8H,9H,10H-cyclohepta[b]indole-4-carboxamide] | 6.65 | 42.7
6 | CCCCC1CCCc2c(n(Cc3cccc(F)c3)c3c(C(=O)O)cccc23)C1 (stereo not shown) [7-butyl-5-[(3-fluorophenyl)methyl]-5H,6H,7H,8H,9H,10H-cyclohepta[b]indole-4-carboxylic acid] | 97 | 90.6
7 | CCCCC1CCCc2c(n(Cc3cccc(O)c3)c3c(C(=O)O)cccc23)C1 (stereo not shown) [7-butyl-5-[(3-hydroxyphenyl)methyl]-5H,6H,7H,8H,9H,10H-cyclohepta[b]indole-4-carboxylic acid] | 98.7 | 96.1
8 | CCCCC1CCCc2c(n(Cc3cccc(OC)c3)c3c(C(=O)O)cccc23)C1 (stereo not shown) [7-butyl-5-[(3-methoxyphenyl)methyl]-5H,6H,7H,8H,9H,10H-cyclohepta[b]indole-4-carboxylic acid] | 91.7 | 86.5
9 | CCCCC1CCCc2c(n(Cc3cccc(C)c3)c3c(C(=O)O)cccc23)C1 (stereo not shown) [7-butyl-5-[(3-methylphenyl)methyl]-5H,6H,7H,8H,9H,10H-cyclohepta[b]indole-4-carboxylic acid] | 94.8 | 91
10 | CCCCC1CCCc2c(n(Cc3ccc(C(N)=O)cc3)c3c(C(=O)O)cccc23)C1 (stereo not shown) [7-butyl-5-[(4-carbamoylphenyl)methyl]-5H,6H,7H,8H,9H,10H-cyclohepta[b]indole-4-carboxylic acid] | 92.6 | 95.5
11 | CCCCC1CCCc2c(n(Cc3ccc(C)cc3)c3c(C(=O)O)cccc23)C1 (stereo not shown) [7-butyl-5-[(4-methylphenyl)methyl]-5H,6H,7H,8H,9H,10H-cyclohepta[b]indole-4-carboxylic acid] | 106 | 92.4
12 | CCCCC1CCCc2c(n(Cc3cccnc3)c3c(C(=O)O)cccc23)C1 (stereo not shown) [7-butyl-5-[(pyridin-3-yl)methyl]-5H,6H,7H,8H,9H,10H-cyclohepta[b]indole-4-carboxylic acid] | 71.6 | 83.8
13 | CCCCCCC1CCCc2c(n(Cc3ccnc(OC)c3)c3c(C(=O)O)cccc23)C1 (stereo not shown) [7-hexyl-5-[(2-methoxypyridin-4-yl)methyl]-5H,6H,7H,8H,9H,10H-cyclohepta[b]indole-4-carboxylic acid] | 78.1 | 82.8
14 | CCCCCCC1CCCc2c(n(Cc3ccccc3C)c3c(C(=O)O)cccc23)C1 (stereo not shown) [7-hexyl-5-[(2-methylphenyl)methyl]-5H,6H,7H,8H,9H,10H-cyclohepta[b]indole-4-carboxylic acid] | 92.7 | 84.2
15 | CCCCCCC1CCCc2c(n(Cc3cccc(OC)c3)c3c(C(=O)O)cccc23)C1 (stereo not shown) [7-hexyl-5-[(3-methoxyphenyl)methyl]-5H,6H,7H,8H,9H,10H-cyclohepta[b]indole-4-carboxylic acid] |  | 93.6
16 | CCCCCCC1CCCc2c(n(Cc3cccc(C)c3)c3c(C(=O)O)cccc23)C1 (stereo not shown) [7-hexyl-5-[(3-methylphenyl)methyl]-5H,6H,7H,8H,9H,10H-cyclohepta[b]indole-4-carboxylic acid] | 98.6 | 94.7
17 | CCCCCCC1CCCc2c(n(Cc3ccc(C)cc3)c3c(C(=O)O)cccc23)C1 (stereo not shown) [7-hexyl-5-[(4-methylphenyl)methyl]-5H,6H,7H,8H,9H,10H-cyclohepta[b]indole-4-carboxylic acid] | 95.6 | 91.7
18 | CCCCCCC1CCCc2c(n(Cc3cccnc3)c3c(C(=O)O)cccc23)C1 (stereo not shown) [7-hexyl-5-[(pyridin-3-yl)methyl]-5H,6H,7H,8H,9H,10H-cyclohepta[b]indole-4-carboxylic acid] | 105 | 97.3

Row | SMILES | inhibition at 1 µM [%] | inhibition at 10 µM [%]
19 | CCCCCCC1CCCc2c(n(Cc3ccnc(C(F)(F)F)c3)c3c(C(=O)O)cccc23)C1 (stereo not shown) [7-hexyl-5-{[2-(trifluoromethyl)pyridin-4-yl]methyl}-5H,6H,7H,8H,9H,10H-cyclohepta[b]indole-4-carboxylic acid] | 87.6 | 94.7
20 | CCCCCCC1CCCc2c(n(Cc3cccc(C(F)(F)F)n3)c3c(C(=O)O)cccc23)C1 (stereo not shown) [7-hexyl-5-{[6-(trifluoromethyl)pyridin-2-yl]methyl}-5H,6H,7H,8H,9H,10H-cyclohepta[b]indole-4-carboxylic acid] |  | 79.8
21 | CCCCCCC1CCc2c(n(Cc3ccccc3C(N)=O)c3c(C(=O)O)cccc23)C1 (stereo not shown) [9-[(2-carbamoylphenyl)methyl]-2-hexyl-2,3,4,9-tetrahydro-1H-carbazole-8-carboxylic acid] | 31.1 | 80.7
22 | CCCCCCC1CCc2c(n(Cc3ccccc3C#N)c3c(C(=O)O)cccc23)C1 (stereo not shown) [9-[(2-cyanophenyl)methyl]-2-hexyl-2,3,4,9-tetrahydro-1H-carbazole-8-carboxylic acid] | 87.3 | 92.7
23 | CCCCCCC1CCc2c(n(Cc3ccccc3F)c3c(C(=O)O)cccc23)C1 (stereo not shown) [9-[(2-fluorophenyl)methyl]-2-hexyl-2,3,4,9-tetrahydro-1H-carbazole-8-carboxylic acid] | 81.8 | 84.9
24 | CCCCCOC1CCCc2c1n(Cc1cccc(C(N)=O)c1)c1c(C(=O)O)cccc21 (stereo not shown) [9-[(3-carbamoylphenyl)methyl]-1-(pentyloxy)-2,3,4,9-tetrahydro-1H-carbazole-8-carboxylic acid] | 81.9 | 100
25 | CCC1CCCc2c1n(Cc1cccc(C(N)=O)c1)c1c(C(=O)O)cccc21 (stereo not shown) [9-[(3-carbamoylphenyl)methyl]-1-ethyl-2,3,4,9-tetrahydro-1H-carbazole-8-carboxylic acid] | 90.3 | 95.9
26 | CCCOC1CCCc2c1n(Cc1cccc(C(N)=O)c1)c1c(C(=O)O)cccc21 (stereo not shown) [9-[(3-carbamoylphenyl)methyl]-1-propoxy-2,3,4,9-tetrahydro-1H-carbazole-8-carboxylic acid] | 57.6 | 92
27 | NC(=O)c1cccc(Cn2c3c(c4cccc(C(=O)O)c42)CCC(CCc2ccccc2)C3)c1 (stereo not shown) [9-[(3-carbamoylphenyl)methyl]-2-(2-phenylethyl)-2,3,4,9-tetrahydro-1H-carbazole-8-carboxylic acid] | 98.4 | 94.1
28 | CCC1CCc2c(n(Cc3cccc(C(N)=O)c3)c3c(C(=O)O)cccc23)C1 (stereo not shown) [9-[(3-carbamoylphenyl)methyl]-2-ethyl-2,3,4,9-tetrahydro-1H-carbazole-8-carboxylic acid] | 85.5 | 101
29 | CCCCCCC1CCc2c(n(Cc3cccc(C(N)=O)c3)c3c(C(=O)O)cccc23)C1 (stereo not shown) [9-[(3-carbamoylphenyl)methyl]-2-hexyl-2,3,4,9-tetrahydro-1H-carbazole-8-carboxylic acid] | 92.8 | 90.5
30 | CCCCCC1CCc2c(n(Cc3cccc(C(N)=O)c3)c3c(C(=O)O)cccc23)C1 (stereo not shown) [9-[(3-carbamoylphenyl)methyl]-2-pentyl-2,3,4,9-tetrahydro-1H-carbazole-8-carboxylic acid] | 75 | 67
31 | CCCC1CCc2c(n(Cc3cccc(C(N)=O)c3)c3c(C(=O)O)cccc23)C1 (stereo not shown) [9-[(3-carbamoylphenyl)methyl]-2-propyl-2,3,4,9-tetrahydro-1H-carbazole-8-carboxylic acid] | 83.6 | 88
32 | CCC1CCc2c(c3cccc(C(=O)O)c3n2Cc2cccc(C(N)=O)c2)C1 (stereo not shown) [9-[(3-carbamoylphenyl)methyl]-3-ethyl-2,3,4,9-tetrahydro-1H-carbazole-8-carboxylic acid] | 98.2 | 103
33 | CCCCCC1CCc2c(c3cccc(C(=O)O)c3n2Cc2cccc(C(N)=O)c2)C1 (stereo not shown) [9-[(3-carbamoylphenyl)methyl]-3-pentyl-2,3,4,9-tetrahydro-1H-carbazole-8-carboxylic acid] | 90.9 | 98.4
34 | CCCC1CCc2c(c3cccc(C(=O)O)c3n2Cc2cccc(C(N)=O)c2)C1 (stereo not shown) [9-[(3-carbamoylphenyl)methyl]-3-propyl-2,3,4,9-tetrahydro-1H-carbazole-8-carboxylic acid] | 87.3 | 99.2
35 | NC(=O)c1cccc(Cn2c3c(c4cccc(C(=O)O)c42)C(CCc2ccccc2)CCC3)c1 (stereo not shown) [9-[(3-carbamoylphenyl)methyl]-4-(2-phenylethyl)-2,3,4,9-tetrahydro-1H-carbazole-8-carboxylic acid] | 44.1 | 77.9
